Biological target: T1, Human AMPK α2ß2γ1 (Homo sapiens, UniProt O43741+P54646)
T1 construct: The full length cDNAs of human AMPK ß2 (NM_005399.3) and human AMPK α2 (NM_006252.3); The full length cDNAs of human AMPK ß2 (NM_005399.3); 6xHis (N); made in house; host or cells: Escherichia coli BL21 CodonPlus (DE3)-RIL
Test: Test Example 2: evaluation of an activator for AMP-activated protein kinase (AMPK), LabChip mobility shift assay with CaMKK2-phosphorylated enzyme
Assay type: biochemical
Details: for EC150 (compound concentration showing 150% relative to the control (100%)): FL-Peptide 7 substrate, 25° C., 2 hours; for Emax / Emax (maximum rate of increase in activity within the measurement range): relative to control (100%); for Emax: read-out: Emax (maximum rate of increase in activity within the measurement range)
Procedure: The full length cDNAs of human AMPK ß2 (NM_005399.3) and human AMPK α2 (NM_006252.3) were inserted into the MCS1 and MCS2 of the pETDuet-1 vector to prepare a human AMPK ß2 and human AMPK α2 (6× His tag at the 5′ terminus) expressing plasmid. The plasmid was cotransfected with an expression plasmid, in which the full length cDNA of human AMPK γ1 (NM_002733.3) had been inserted into pET28b(+), into BL21 CodonPlus (DE3)-RIL to obtain an expression strain. The expression strain was cultured in TB medium, followed by induction with 0.5 mM IPTG, and cultured at 25° C. for 3 hours and then harvested. After ultrasonication, supernatant was collected and applied to Histrap FF column (GE) and RESOURCE Q column (GE) to prepare 12.5 mg of purified sample containing three types of subunit from 1.8 L of broth.
Preparation method of human CaMKK2 used to impart activity to AMPK An expression vector, in which the full length cDNA of human CAMKK ß (NM_172226.1) had been inserted into pGEX-6P-3, was transfected into BL21 Star (DE3). The expression strain was cultured in TB medium, followed by induction with 0.5 mM IPTG, and cultured at 25° C. for 3 hours and then harvested. After ultrasonication, supernatant was collected and applied to GSTrap FF column (GE) to prepare 14 mg of GST-fused CAMKK ß from 720 ml of broth.
Thus, phosphorylation treatment was carried out as pretreatment.
Human AMPK α2ß2γ1 in an amount to give a conversion rate of approximately 10% by reaction for 2 hours, and CaMKK2 in an amount capable of sufficiently imparting activity to AMPK for one hour were mixed in a buffer solution consisting of a 50 mM HEPES-NaOH buffer solution (pH 7.0), 100 mM NaCl, 5 mM magnesium chloride, 0.1% bovine serum albumin, 0.2 mM sodium orthovanadate(V), 1 mM ethylene glycol-bis(2-aminoethyl ether)-N,N,N′,N′-tetraacetic acid (EGTA), 5 mM disodium ß-glycerophosphate, 1 mM dithiothreitol and 0.2 mM ATP, and the resulting liquid was left to stand at 25° C. for 1 to 1.5 hours to sufficiently phosphorylate AMPK.
After that, to the enzyme liquid, which had been subjected to phosphorylation treatment, a compound dissolved in DMSO was added so as to have a 1% DMSO concentration. The resulting liquid was left to stand for 10 minutes.
To the liquid, a substrate solution consisting of a 50 mM HEPES-NaOH buffer solution (pH 7.0), 100 mM NaCl, 10 mM magnesium chloride, 0.1% bovine serum albumin, 0.2 mM sodium orthovanadate(V), 1 mM ethylene glycol-bis(2-aminoethyl ether)-N,N,N′,N′-tetraacetic acid (EGTA), 5 mM disodium ß-glycerophosphate, 2 mM dithiothreitol, 0.4 mM ATP and 3 μM FL-Peptide 7 (manufactured by Caliper Life Sciences, Inc.) was added in equal amount (10 μl in total). The resulting liquid was allowed to react at 25° C. for 2 hours, and 10 μl of 20 mM EDTA was added thereto to stop the reaction.
To detect phosphorylated fluorescent substrates, the reaction mixture was applied to a measuring device, LabChip EZ Reader II manufactured by Caliper Life Science, Inc., for detecting fluorescence by using differences in mobility due to differences in charge. The setting conditions for the device were pressure, −1.5 PSI; upstream voltage, −2250 V; downstream voltage, −400 V; post sample buffer sip time, 40 seconds; final delay, 120 seconds; and peak order, Product First.
A conversion rate was calculated from the peak heights of the obtained substrate and product. The conversion rate when not containing a compound was used as a control, and a concentration dependent curve was made by plotting the rate of increase in activity to the control at each concentration of a compound.

T1 sequence (P54646 whole entry): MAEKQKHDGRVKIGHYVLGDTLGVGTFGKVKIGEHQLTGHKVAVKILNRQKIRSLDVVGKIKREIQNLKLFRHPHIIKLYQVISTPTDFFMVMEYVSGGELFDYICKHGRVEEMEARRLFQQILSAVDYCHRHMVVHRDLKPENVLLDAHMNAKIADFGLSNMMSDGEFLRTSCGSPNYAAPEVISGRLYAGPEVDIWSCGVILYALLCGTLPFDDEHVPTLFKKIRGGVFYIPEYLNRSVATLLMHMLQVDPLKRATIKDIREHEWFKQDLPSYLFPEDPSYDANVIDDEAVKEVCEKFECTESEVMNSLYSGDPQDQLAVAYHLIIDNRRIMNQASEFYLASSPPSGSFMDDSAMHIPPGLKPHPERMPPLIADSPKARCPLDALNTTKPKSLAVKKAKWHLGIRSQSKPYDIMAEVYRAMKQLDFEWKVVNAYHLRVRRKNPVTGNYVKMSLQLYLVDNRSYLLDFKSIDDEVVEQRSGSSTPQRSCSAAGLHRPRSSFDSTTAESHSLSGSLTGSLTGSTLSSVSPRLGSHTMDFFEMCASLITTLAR
T1 sequence (O43741 whole entry): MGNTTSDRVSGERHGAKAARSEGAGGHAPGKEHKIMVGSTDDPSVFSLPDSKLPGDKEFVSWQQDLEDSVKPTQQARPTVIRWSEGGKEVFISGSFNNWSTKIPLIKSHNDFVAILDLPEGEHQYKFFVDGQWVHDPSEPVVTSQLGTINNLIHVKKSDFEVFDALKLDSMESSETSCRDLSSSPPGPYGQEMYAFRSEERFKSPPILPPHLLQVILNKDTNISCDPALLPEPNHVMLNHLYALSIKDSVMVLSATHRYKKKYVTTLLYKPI
T1 sequence (P54619 whole entry partner): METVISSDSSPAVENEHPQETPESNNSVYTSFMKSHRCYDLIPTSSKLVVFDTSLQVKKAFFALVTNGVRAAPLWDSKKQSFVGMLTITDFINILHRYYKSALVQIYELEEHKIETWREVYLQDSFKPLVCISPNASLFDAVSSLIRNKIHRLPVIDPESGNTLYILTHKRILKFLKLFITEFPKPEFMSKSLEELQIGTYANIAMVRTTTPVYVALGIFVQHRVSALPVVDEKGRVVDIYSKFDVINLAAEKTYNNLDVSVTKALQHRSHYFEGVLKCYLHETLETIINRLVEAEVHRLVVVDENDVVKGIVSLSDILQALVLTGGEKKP

Structure (SMILES) | EC150 (compound concentration showing 150% relative to the control (100%)) | Emax | Emax (maximum rate of increase in activity within the measurement range)
OCCCOc1cc(F)c2c(c1)CCC2Nc1nc2nc(O[C@@H]3CO[C@H]4[C@@H]3OC[C@H]4O)[nH]c2cc1Cl (stereo partly shown) [Compound I-1-81] | 1.6 nM | 387% | –
O[C@@H]1CO[C@H]2[C@@H]1OC[C@H]2Oc1nc2nc(NC3CCc4cc(OCC5CCO5)cc(F)c43)c(Cl)cc2[nH]1 (stereo partly shown) [Compound I-1-83] | 2.2 nM | 414% | –
COc1ccc(-c2cc(F)c3c(c2)CCC3Nc2nc3nc(O[C@@H]4CO[C@H]5[C@@H]4OC[C@H]5O)[nH]c3cc2Cl)cn1 (stereo partly shown) [Compound I-1-86] | 28 nM | – | 379%
CC(C)(O)CCOc1cc(F)c2c(c1)CCC2Nc1nc2nc(O[C@@H]3CO[C@H]4[C@@H]3OC[C@H]4O)[nH]c2cc1Cl (stereo partly shown) [Compound I-1-88] | 5.9 nM | 376% | –
CCOc1cc(F)c2c(c1)CCC2Nc1nc2nc(O[C@@H]3CO[C@H]4[C@@H]3OC[C@H]4O)[nH]c2cc1Cl (stereo partly shown) [Compound I-1-90] | 11 nM | 382% | –
O[C@@H]1CO[C@H]2[C@@H]1OC[C@H]2Oc1nc2nc(NC3CCc4cc(-c5ccnnc5)cc(F)c43)c(Cl)cc2[nH]1 (stereo partly shown) [Compound I-1-91] | 1.2 nM | 466% | –
O[C@@H]1CO[C@H]2[C@@H]1OC[C@H]2Oc1nc2nc(NC3CCc4cc(OC5CCNCC5)cc(F)c43)c(Cl)cc2[nH]1 (stereo partly shown) [Compound I-1-93] | 4 nM | 444% | –
COC/C=C/c1cc(F)c2c(c1)CC[C@@H]2Nc1nc2nc(O[C@@H]3CO[C@H]4[C@@H]3OC[C@H]4O)[nH]c2cc1Cl [Compound I-1-94] | 5.6 nM | 416% | –
CCOCCOc1cc(F)c2c(c1)CC[C@@H]2Nc1nc2nc(O[C@@H]3CO[C@H]4[C@@H]3OC[C@H]4O)[nH]c2cc1Cl [Compound I-1-95] | 1.3 nM | 424% | –
O[C@@H]1CO[C@H]2[C@@H]1OC[C@H]2Oc1nc2nc(NC3CCc4cc(OCCN5CCOCC5)cc(F)c43)c(Cl)cc2[nH]1 (stereo partly shown) [Compound I-1-96] | 3.6 nM | 430% | –
O[C@@H]1CO[C@H]2[C@@H]1OC[C@H]2Oc1nc2nc(NC3CCc4cc(OCCN5CCCC5)cc(F)c43)c(Cl)cc2[nH]1 (stereo partly shown) [Compound I-1-97] | 2.1 nM | 433% | –
O=C1CCCN1CCOc1cc(F)c2c(c1)CCC2Nc1nc2nc(O[C@@H]3CO[C@H]4[C@@H]3OC[C@H]4O)[nH]c2cc1Cl (stereo partly shown) [Compound I-1-98] | 3.6 nM | – | 434%
O[C@@H]1CO[C@H]2[C@@H]1OC[C@H]2Oc1nc2nc(NC3CCc4cc(OCC5(F)COC5)cc(F)c43)c(Cl)cc2[nH]1 (stereo partly shown) [Compound I-1-99] | 4.6 nM | 422% | –
OCC/C=C/c1cc(F)c2c(c1)CCC2Nc1nc2nc(O[C@@H]3CO[C@H]4[C@@H]3OC[C@H]4O)[nH]c2cc1Cl (stereo partly shown) [Compound I-1-100] | 3.5 nM | 441% | –
COCCOc1cc(F)c2c(c1)CCC2Nc1nc2nc(O[C@@H]3CO[C@H](CO)C3)[nH]c2cc1Cl (stereo partly shown) [Compound I-1-104] | 2.3 nM | 423% | –
COCC(=O)Nc1cc(F)c2c(c1)CCC2Nc1nc2nc(O[C@@H]3CO[C@H]4[C@@H]3OC[C@H]4O)[nH]c2cc1Cl (stereo partly shown) [Compound I-1-105] | 4.1 nM | 434% | –
Cn1cc(-c2cc(F)c3c(c2)CCC3Nc2nc3nc(O[C@@H]4CO[C@H]5[C@@H]4OC[C@H]5O)[nH]c3cc2Cl)ccc1=O (stereo partly shown) [Compound I-1-106] | 1.4 nM | 462% | –
O[C@@H]1CO[C@H]2[C@@H]1OC[C@H]2Oc1nc2nc(NC3CCc4cc(-c5cnccn5)cc(F)c43)c(Cl)cc2[nH]1 (stereo partly shown) [Compound I-1-111] | 4.5 nM | 424% | –
O[C@@H]1CO[C@H]2[C@@H]1OC[C@H]2Oc1nc2nc(N[C@H]3CCc4cc(O[C@H]5CC[C@@H](O)CC5)cc(F)c43)c(Cl)cc2[nH]1 [Compound I-2-01] | 1.8 nM | 646% | –
COCC1CC1c1cc(F)c2c(c1)CC[C@@H]2Nc1nc2nc(O[C@@H]3CO[C@H]4[C@@H]3OC[C@H]4O)[nH]c2cc1Cl (stereo partly shown) [Compound I-2-02] | 2.4 nM | 557% | –
O[C@@H]1CO[C@H]2[C@@H]1OC[C@H]2Oc1nc2nc(NC3CCc4cc(OCCOCC(F)(F)F)cc(F)c43)c(Cl)cc2[nH]1 (stereo partly shown) [Compound I-2-05] | 6 nM | 680% | –
O[C@@H]1CO[C@H]2[C@@H]1OC[C@H]2Oc1nc2nc(NC3CCc4cc(OCCF)cc(F)c43)c(Cl)cc2[nH]1 (stereo partly shown) [Compound I-2-06] | 3.6 nM | – | 707%
CCOC/C=C/c1cc(F)c2c(c1)CC[C@@H]2Nc1nc2nc(O[C@@H]3CO[C@H]4[C@@H]3OC[C@H]4O)[nH]c2cc1Cl [Compound I-2-07] | 2 nM | 727% | –
CS(C)(=O)=Nc1cc(F)c2c(c1)CC[C@@H]2Nc1nc2nc(O[C@@H]3CO[C@H]4[C@@H]3OC[C@H]4O)[nH]c2cc1Cl [Compound I-2-08] | 3.5 nM | 688% | –
CC(C)(O)COc1cc(F)c2c(c1)CCC2Nc1nc2nc(O[C@@H]3CO[C@H]4[C@@H]3OC[C@H]4O)[nH]c2cc1Cl (stereo partly shown) [Compound I-2-09] | 3.9 nM | 633% | –
N#Cc1cc(F)c2c(c1)CC[C@@H]2Nc1nc2nc(O[C@@H]3CO[C@H]4[C@@H]3OC[C@H]4O)[nH]c2cc1Cl [Compound I-2-10] | 3.4 nM | 642% | –
O[C@@H]1CO[C@H]2[C@@H]1OC[C@H]2Oc1nc2cc(Cl)c(NC3CCc4cc(OCCOC(F)F)cc(F)c43)nc2[nH]1 (stereo partly shown) [Compound I-2-14] | 5.6 nM | 594% | –
COCn1cc(-c2cc(F)c3c(c2)CC[C@@H]3Nc2nc3[nH]c(O[C@@H]4CO[C@H]5[C@@H]4OC[C@H]5O)nc3cc2Cl)cn1 [Compound I-2-17] | 1.4 nM | 720% | –
O[C@@H]1CO[C@H]2[C@@H]1OC[C@H]2Oc1nc2nc(NC3CCc4cc(-c5ccoc5)cc(F)c43)c(Cl)cc2[nH]1 (stereo partly shown) [Compound I-2-21] | 4.9 nM | 650% | –

Reference: patent US20190135834A1, “5-SUBSTITUTED AZABENZIMIDAZOLE DERIVATIVE HAVING ???? ACTIVATION ACTION” (Shionogi & Co., Ltd., priority 2016, published 2019)
